Experimental data: ChEMBL document CHEMBL1201861, “Genomics of Drug Sensitity in Cancer screening data, Wellcome Trust Sanger Institute”

Columns and labels:
Assay in all cases: cells
HT-1080 = format: functional, cell-based, Homo sapiens
Description: SANGER: Inhibition of human HT-1080 cell growth in a cell viability assay.

NCI-H2228 = format: functional, cell-based, Homo sapiens;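 also: growth inhibition of human NCI-H2228 cells, read out by a cell viability assay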
Description: SANGER: Inhibition of human NCI-H2228 cell growth in a cell viability assay.

Ca-Ski = format: functional, cell-based, Homo sapiens;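 also: cell viability assay measuring inhibition of Ca-Ski cell growth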
Description: SANGER: Inhibition of human Ca-Ski cell growth in a cell viability assay.

BCPAP = format: functional, cell-based, Homo sapiens;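 also: growth inhibition of BCPAP cells, read out in a cell viability assay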
Description: SANGER: Inhibition of human BCPAP cell growth in a cell viability assay.

A2058 = format: functional, cell-based, Homo sapiens;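 also: reduction of A2058 cell growth, read out with a viability assay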
Description: SANGER: Inhibition of human A2058 cell growth in a cell viability assay.

RT-112 = format: functional, cell-based, Homo sapiens
Description: SANGER: Inhibition of human RT-112 cell growth in a cell viability assay.

COR-L23 = format: functional, cell-based, Homo sapiens;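 also: cell viability assay measuring how strongly compounds suppress growth of COR-L23 cells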
Description: SANGER: Inhibition of human COR-L23 cell growth in a cell viability assay.

J82 = format: functional, cell-based, Homo sapiens;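 also: growth inhibition of J82 cells, read out with a cell viability assay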
Description: SANGER: Inhibition of human J82 cell growth in a cell viability assay.

HSC-2 = format: functional, cell-based, Homo sapiens;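 also: growth inhibition of human HSC-2 cells, read out by a cell viability assay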
Description: SANGER: Inhibition of human HSC-2 cell growth in a cell viability assay.

MCF7 = format: functional, cell-based, Homo sapiens;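 also: growth inhibition of human MCF7 cells, read out with a cell viability assay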
Description: SANGER: Inhibition of human MCF7 cell growth in a cell viability assay.

HCC1569 = format: functional, cell-based, Homo sapiens;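 also: growth inhibition of human HCC1569 cells, read out with a cell viability assay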
Description: SANGER: Inhibition of human HCC1569 cell growth in a cell viability assay.

TCC-SUP = format: functional, cell-based, Homo sapiens;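 also: growth inhibition of TCC-SUP cells, read out with a cell viability assay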
Description: SANGER: Inhibition of human TCCSUP cell growth in a cell viability assay.

SK-OV-3 = format: functional, cell-based, Homo sapiens;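 also: growth inhibition of SK-OV-3 human cells, read out with a cell viability assay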
Description: SANGER: Inhibition of human SK-OV-3 cell growth in a cell viability assay.

MDA-MB-361 = format: functional, cell-based, Homo sapiens
SK-MEL3 = format: functional, cell-based, Homo sapiens, SK-MEL-3;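 also: growth inhibition of human SK-MEL-3 cells, read out with a cell viability assay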
Description: SANGER: Inhibition of human SK-MEL-3 cell growth in a cell viability assay.

C32 = format: functional, cell-based, Homo sapiens;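 also: cell viability assay, with IC50 reflecting inhibition of C32 cell growth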
Description: SANGER: Inhibition of human C32 cell growth in a cell viability assay.

MKN-45 = format: functional, cell-based, Homo sapiens;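 also: growth inhibition of human MKN-45 cells, measured with a cell viability assay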
Description: SANGER: Inhibition of human MKN45 cell growth in a cell viability assay.

MEL-HO = format: functional, cell-based, Homo sapiens
Description: SANGER: Inhibition of human MEL-HO cell growth in a cell viability assay.

KYSE-180 = format: functional, cell-based, Homo sapiens;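 also: growth inhibition of KYSE-180 cells, read out with a cell viability assay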
Description: SANGER: Inhibition of human KYSE-180 cell growth in a cell viability assay.

SK-MEL-24 = format: functional, cell-based, Homo sapiens;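 also: growth inhibition read out by a cell viability assay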
Description: SANGER: Inhibition of human SK-MEL-24 cell growth in a cell viability assay.

NCI-H630 = format: functional, cell-based, Homo sapiens;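 also: growth inhibition of NCI-H630 cells, read out with a cell viability assay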
Description: SANGER: Inhibition of human NCI-H630 cell growth in a cell viability assay.

HMV-2 cell line = format: functional, cell-based, Homo sapiens;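 also: growth inhibition of HMV-II cells, read out with a cell viability assay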
Description: SANGER: Inhibition of human HMV-II cell growth in a cell viability assay.

UACC-893 = format: functional, cell-based, Homo sapiens
Description: SANGER: Inhibition of human UACC-893 cell growth in a cell viability assay.

CAL-62 = format: functional, cell-based, Homo sapiens;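 also: growth inhibition of CAL-62 cells, read out with a cell viability assay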
Description: SANGER: Inhibition of human CAL-62 cell growth in a cell viability assay.

DOK = format: functional, cell-based, Homo sapiens;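 also: cell viability assay read-out, values reflect inhibition of cell growth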
Description: SANGER: Inhibition of human DOK cell growth in a cell viability assay.

8505C = format: functional, cell-based, Homo sapiens
Description: SANGER: Inhibition of human 8505C cell growth in a cell viability assay.

RERF-LC-MS = format: functional, cell-based, Homo sapiens;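 also: growth inhibition of human RERF-LC-MS cells, read out by a cell viability assay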
Description: SANGER: Inhibition of human RERF-LC-MS cell growth in a cell viability assay.

Capan-2 = format: functional, cell-based, Homo sapiens;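 also: Capan-2 cell growth inhibition, read out with a viability assay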
Description: SANGER: Inhibition of human Capan-2 cell growth in a cell viability assay.

H4 = format: functional, cell-based, Homo sapiens
Description: SANGER: Inhibition of human H4 cell growth in a cell viability assay.

SW1417 = format: functional, cell-based, Homo sapiens;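 also: growth inhibition of human SW1417 cells, read out with a cell viability assay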
Description: SANGER: Inhibition of human SW1417 cell growth in a cell viability assay.

NCI-H1703 = format: functional, cell-based, Homo sapiens;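 also: growth inhibition of NCI-H1703 cells, read out via a cell viability assay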
Description: SANGER: Inhibition of human NCI-H1703 cell growth in a cell viability assay.

SNU-387 = format: functional, cell-based, Homo sapiens
Description: SANGER: Inhibition of human SNU-387 cell growth in a cell viability assay.

ACHN = format: functional, cell-based, Homo sapiens;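 also: cell viability read-out used to gauge how strongly growth of human ACHN cells is suppressed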
Description: SANGER: Inhibition of human ACHN cell growth in a cell viability assay.

HuP-T4 = format: functional, cell-based, Homo sapiens;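 also: cell viability assay measuring how much HuP-T4 cell growth is inhibited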
Description: SANGER: Inhibition of human HuP-T4 cell growth in a cell viability assay.

SK-HEP1 = format: functional, cell-based, Homo sapiens, SK-HEP-1;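 also: cell viability readout used to quantify reduction in proliferation of human SK-HEP-1 cells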
Description: SANGER: Inhibition of human SK-HEP-1 cell growth in a cell viability assay.

VMRC-RCZ = format: functional, cell-based, Homo sapiens;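 also: growth inhibition measured with a cell viability assay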
Description: SANGER: Inhibition of human VMRC-RCZ cell growth in a cell viability assay.

NCI-H1563 = format: functional, cell-based, Homo sapiens;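 also: growth inhibition of human NCI-H1563 cells, read out with a cell viability assay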
Description: SANGER: Inhibition of human NCI-H1563 cell growth in a cell viability assay.

NCI-H2029 = format: functional, cell-based, Homo sapiens;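 also: Read-out is a viability assay on the cultured cells, and IC50 is the concentration that suppresses cell growth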
Description: SANGER: Inhibition of human NCI-H2029 cell growth in a cell viability assay.

HuO-3N1 = format: functional, cell-based, Homo sapiens;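 also: cell viability readout used to measure how strongly compounds suppress proliferation of human HuO-3N1 cells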
Description: SANGER: Inhibition of human HuO-3N1 cell growth in a cell viability assay.

NUGC-3 = format: functional, cell-based, Homo sapiens;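 also: growth inhibition of human NUGC-3 cells, read out with a cell viability assay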
Description: SANGER: Inhibition of human NUGC-3 cell growth in a cell viability assay.

CO[C@H]1C[C@@H]2CC[C@@H](C)[C@@](O)(O2)C(=O)C(=O)N2CCCC[C@H]2C(=O)O[C@H]([C@H](C)C[C@@H]2CC[C@@H](OC(=O)C(C)(CO)CO)[C@H](OC)C2)CC(=O)[C@H](C)/C=C(\C)[C@@H](O)[C@@H](OC)C(=O)[C@H](C)C[C@H](C)/C=C/C=C/C=C/1C [TEMSIROLIMUS]
IC50 (HT-1080; Homo sapiens, HT-1080): 0.0179 µM | IC50 (NCI-H2228; Homo sapiens, NCI-H2228): > 0.2 µM | IC50 (Ca-Ski; Homo sapiens, Ca-Ski): > 0.2 µM | IC50 (BCPAP; Homo sapiens, BCPAP): 0.0585 µM | IC50 (A2058; Homo sapiens, A2058): 0.0266 µM | IC50 (RT-112; Homo sapiens, RT-112): 0.0471 µM | IC50 (COR-L23; Homo sapiens, COR-L23): > 0.2 µM | IC50 (J82; Homo sapiens, J82): 0.148 µM | IC50 (HSC-2; Homo sapiens, HSC-2): 0.2 µM | IC50 (MCF7; Homo sapiens, MCF7): > 0.2 µM | IC50 (HCC1569; Homo sapiens, HCC1569): > 0.2 µM | IC50 (TCC-SUP; Homo sapiens, TCC-SUP): 0.0823 µM | IC50 (SK-OV-3; Homo sapiens, SK-OV-3): > 0.2 µM | IC50 (MDA-MB-361; Homo sapiens, MDA-MB-361): > 0.2 µM | IC50 (SK-MEL3; Homo sapiens, SK-MEL3): > 0.2 µM | IC50 (C32; Homo sapiens, C32): 0.0466 µM | IC50 (MKN-45; Homo sapiens, MKN-45): > 0.2 µM | IC50 (MEL-HO; Homo sapiens, MEL-HO): 0.0336 µM | IC50 (KYSE-180; Homo sapiens, KYSE-180): > 0.2 µM | IC50 (SK-MEL-24; Homo sapiens, SK-MEL-24): 0.077 µM | IC50 (NCI-H630; Homo sapiens, NCI-H630): > 0.2 µM | IC50 (HMV-2 cell line; Homo sapiens, HMV-2): > 0.2 µM | IC50 (UACC-893; Homo sapiens, UACC-893): > 0.2 µM | IC50 (CAL-62; Homo sapiens, CAL-62): 0.117 µM | IC50 (DOK; Homo sapiens, DOK): 0.041 µM | IC50 (8505C; Homo sapiens, 8505C): > 0.2 µM | IC50 (RERF-LC-MS; Homo sapiens, RERF-LC-MS): > 0.2 µM | IC50 (Capan-2; Homo sapiens, Capan-2): > 0.2 µM | IC50 (H4; Homo sapiens, H4): 0.00107 µM | IC50 (SW1417; Homo sapiens, SW1417): > 0.2 µM | IC50 (NCI-H1703; Homo sapiens, NCI-H1703): 0.0232 µM | IC50 (SNU-387; Homo sapiens, SNU-387): 0.175 µM | IC50 (ACHN; Homo sapiens, ACHN): > 0.2 µM | IC50 (HuP-T4; Homo sapiens, HuP-T4): > 0.2 µM | IC50 (SK-HEP1; Homo sapiens, SK-HEP1): > 0.2 µM | IC50 (VMRC-RCZ; Homo sapiens, VMRC-RCZ): > 0.2 µM | IC50 (NCI-H1563; Homo sapiens, NCI-H1563): 0.106 µM | IC50 (NCI-H2029; Homo sapiens, NCI-H2029): > 0.2 µM | IC50 (HuO-3N1; Homo sapiens, HuO-3N1): 0.023 µM | IC50 (NUGC-3; Homo sapiens, NUGC-3): 0.0235 µM

CS(=O)(=O)c1ccc(C(=O)Nc2ccc(Cl)c(-c3ccccn3)c2)c(Cl)c1 [VISMODEGIB]
IC50 (HT-1080; Homo sapiens, HT-1080): > 10 µM | IC50 (NCI-H2228; Homo sapiens, NCI-H2228): > 10 µM | IC50 (Ca-Ski; Homo sapiens, Ca-Ski): > 10 µM | IC50 (BCPAP; Homo sapiens, BCPAP): > 10 µM | IC50 (A2058; Homo sapiens, A2058): > 10 µM | IC50 (RT-112; Homo sapiens, RT-112): > 10 µM | IC50 (COR-L23; Homo sapiens, COR-L23): > 10 µM | IC50 (J82; Homo sapiens, J82): > 10 µM | IC50 (HSC-2; Homo sapiens, HSC-2): > 10 µM | IC50 (MCF7; Homo sapiens, MCF7): > 10 µM | IC50 (HCC1569; Homo sapiens, HCC1569): > 10 µM | IC50 (TCC-SUP; Homo sapiens, TCC-SUP): > 10 µM | IC50 (SK-OV-3; Homo sapiens, SK-OV-3): > 10 µM | IC50 (MDA-MB-361; Homo sapiens, MDA-MB-361): > 10 µM | IC50 (SK-MEL3; Homo sapiens, SK-MEL3): > 10 µM | IC50 (C32; Homo sapiens, C32): > 10 µM | IC50 (MKN-45; Homo sapiens, MKN-45): > 10 µM | IC50 (MEL-HO; Homo sapiens, MEL-HO): > 10 µM | IC50 (KYSE-180; Homo sapiens, KYSE-180): > 10 µM | IC50 (SK-MEL-24; Homo sapiens, SK-MEL-24): > 10 µM | IC50 (NCI-H630; Homo sapiens, NCI-H630): > 10 µM | IC50 (HMV-2 cell line; Homo sapiens, HMV-2): > 10 µM | IC50 (UACC-893; Homo sapiens, UACC-893): > 10 µM | IC50 (CAL-62; Homo sapiens, CAL-62): > 10 µM | IC50 (DOK; Homo sapiens, DOK): > 10 µM | IC50 (8505C; Homo sapiens, 8505C): > 10 µM | IC50 (RERF-LC-MS; Homo sapiens, RERF-LC-MS): > 10 µM | IC50 (Capan-2; Homo sapiens, Capan-2): > 10 µM | IC50 (H4; Homo sapiens, H4): > 10 µM | IC50 (SW1417; Homo sapiens, SW1417): > 10 µM | IC50 (NCI-H1703; Homo sapiens, NCI-H1703): > 10 µM | IC50 (SNU-387; Homo sapiens, SNU-387): > 10 µM | IC50 (ACHN; Homo sapiens, ACHN): > 10 µM | IC50 (HuP-T4; Homo sapiens, HuP-T4): > 10 µM | IC50 (SK-HEP1; Homo sapiens, SK-HEP1): > 10 µM | IC50 (VMRC-RCZ; Homo sapiens, VMRC-RCZ): > 10 µM | IC50 (NCI-H1563; Homo sapiens, NCI-H1563): > 10 µM | IC50 (NCI-H2029; Homo sapiens, NCI-H2029): > 10 µM | IC50 (HuO-3N1; Homo sapiens, HuO-3N1): 9.6 µM | IC50 (NUGC-3; Homo sapiens, NUGC-3): > 10 µM

CISPLATIN
IC50 (HT-1080; ht-1080): 23.9 µM | IC50 (NCI-H2228; nci-h2228): 8.25 µM | IC50 (Ca-Ski; ca-ski): 10.3 µM | IC50 (BCPAP; bcpap): 228 µM | IC50 (A2058; a2058): 17.5 µM | IC50 (RT-112; rt-112): 14.3 µM | IC50 (COR-L23; cor-l23): 5.63 µM | IC50 (J82; j82): 5.1 µM | IC50 (HSC-2; hsc-2): 129 µM | IC50 (MCF7; mcf7): 15.2 µM | IC50 (HCC1569; hcc1569): 455 µM | IC50 (TCC-SUP; tcc-sup): 8.5 µM | IC50 (SK-OV-3; sk-ov-3): 614 µM | IC50 (MDA-MB-361; mda-mb-361): 18.5 µM | IC50 (SK-MEL3; sk-mel-3): 684 µM | IC50 (C32; c32): 6.38 µM | IC50 (MKN-45; mkn-45): 28.6 µM | IC50 (MEL-HO; mel-ho): 1.07 µM | IC50 (KYSE-180; kyse-180): 5.82 µM | IC50 (SK-MEL-24; sk-mel-24): 43.7 µM | IC50 (NCI-H630; nci-h630): 514 µM | IC50 (HMV-2 cell line; hmv-2): 11.2 µM | IC50 (UACC-893; uacc-893): 26.1 µM | IC50 (CAL-62; cal-62): 301 µM | IC50 (DOK; dok): 12.5 µM | IC50 (8505C; 8505c): 34.6 µM | IC50 (RERF-LC-MS; rerf-lc-ms): 418 µM | IC50 (Capan-2; capan-2): 243 µM | IC50 (H4; h4): 4.71 µM | IC50 (SW1417; sw1417): 194 µM | IC50 (NCI-H1703; nci-h1703): 148 µM | IC50 (SNU-387; snu-387): 26.1 µM | IC50 (ACHN; achn): 8.05 µM | IC50 (HuP-T4; hup-t4): 37.4 µM | IC50 (SK-HEP1; sk-hep-1): 28.9 µM | IC50 (VMRC-RCZ; vmrc-rcz): 298 µM | IC50 (NCI-H1563; nci-h1563): 146 µM | IC50 (NCI-H2029; nci-h2029): 961 µM | IC50 (HuO-3N1; huo-3n1): 8.87 µM | IC50 (NUGC-3; nugc-3): 2.14 µM
